SMILES strings stand for the structures.

The source of these data is patent publication US11279691B2, “Substituted pyridine and pyrazine compounds as PDE4 inhibitors” (Dart Neuroscience LLC, priority 2013, dated 2022).

T1 sequence (Q08499 1-673 isoform Q08499-2): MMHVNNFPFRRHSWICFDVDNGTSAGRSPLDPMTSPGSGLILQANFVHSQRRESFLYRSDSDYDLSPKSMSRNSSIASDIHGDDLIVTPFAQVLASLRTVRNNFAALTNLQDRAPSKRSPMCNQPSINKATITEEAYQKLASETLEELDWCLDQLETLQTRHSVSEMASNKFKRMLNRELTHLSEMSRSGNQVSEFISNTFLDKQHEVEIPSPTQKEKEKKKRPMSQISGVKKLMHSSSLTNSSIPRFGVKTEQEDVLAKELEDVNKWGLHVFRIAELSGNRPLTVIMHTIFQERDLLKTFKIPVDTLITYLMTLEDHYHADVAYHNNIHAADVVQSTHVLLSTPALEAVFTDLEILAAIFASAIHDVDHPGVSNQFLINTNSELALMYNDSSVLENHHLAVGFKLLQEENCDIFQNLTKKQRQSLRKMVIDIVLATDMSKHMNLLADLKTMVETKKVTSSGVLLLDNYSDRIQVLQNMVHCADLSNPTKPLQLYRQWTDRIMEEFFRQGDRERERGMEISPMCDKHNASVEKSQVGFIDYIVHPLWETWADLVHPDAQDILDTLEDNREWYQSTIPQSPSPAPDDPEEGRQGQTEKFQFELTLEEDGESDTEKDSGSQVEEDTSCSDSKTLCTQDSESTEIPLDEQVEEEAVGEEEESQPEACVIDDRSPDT

The assay concerns the target T1, PDE4D3 (Homo sapiens, UniProt Q08499).
T1 construct: GST
The class given is biochemical. The note with it: GST-tagged PDE4D3, 200 nM FAM-cAMP, 11-point dose-response; read-out: PD4d3 pEC50 (converted).
As to `CCOc1ncc(Cn2ccc(C(N)=O)n2)nc1-c1cccc(Cl)c1` [Example 313, 1-{[6-(3-Chlorophenyl)-5-ethoxypyrazin-2-yl]methyl}-1H-pyrazole-3-carboxamide], the EC50 was 100 to 1000 nM.

Take `CCOc1ncc(Cn2cnc(CO)n2)cc1-c1ccc(F)cc1` [Example 342, (1-{[6-Ethoxy-5-(4-fluorophenyl)pyridin-3-yl]methyl}-1H-1,2,4-triazol-3-yl)methanol]: the EC50 is 100 to 1000 nM.

Regarding `COc1ncc(Cn2cc(CO)nc2C)nc1-c1cccc(Cl)c1` [Example 322, (1-{[6-(3-Chlorophenyl)-5-methoxypyrazin-2-yl]methyl}-2-methyl-1H-imidazol-4-yl)methanol], the EC50 is 100 to 1000 nM.

Take `CCOc1ncc(Cn2nc(CO)cc2C)cc1-c1cccc(Cl)c1` [Example 325, (1-{[5-(3-Chlorophenyl)-6-ethoxypyridin-3-yl]methyl}-5-methyl-1H-pyrazol-3-yl)methanol]: the EC50 was less than 100 nM.

In the case of `COc1ncc(Cc2cnc(N)nc2)cc1-c1cccc(C#N)c1` [Example 356, 3-{5-[(2-Aminopyrimidin-5-yl)methyl]-2-methoxypyridin-3-yl}benzonitrile], the EC50 is 100 to 1000 nM.

As to `COc1ncc(Cc2ccc(CC(N)=O)cc2)cc1-c1ccc(F)c(F)c1` [Example 363, 2-(4-{[5-(3,4-Difluorophenyl)-6-methoxypyridin-3-yl]methyl}phenyl)acetamide], the EC50 was less than 100 nM.

With `COc1ncc(Cc2cnc(N)nc2)cc1-c1ccc(F)c(C)c1` [Example 357, 5-{[5-(4-Fluoro-3-methylphenyl)-6-methoxypyridin-3-yl]methyl}pyrimidin-2-amine], the EC50 was 100 to 1000 nM.

Turning to `CCOC(=O)Cc1ccc(Cc2cnc(OC)c(-c3cccc(Cl)c3)c2)cc1` [Intermediate 50, Ethyl 2-(4-{[5-(3-chlorophenyl)-6-methoxypyridin-3-yl]methyl}phenyl)acetate], the EC50 is 100 to 1000 nM.

Consider `COc1ncc(Cn2nnnc2CO)cc1-c1cccc(Cl)c1` [Example 387, (1-{[5-(3-Chlorophenyl)-6-methoxypyridin-3-yl]methyl}-1H-1,2,3,4-tetrazol-5-yl)methanol], for which the EC50 is 1000 to 10000 nM.

With `COc1ncc(Cc2cnc(NCCO)nc2)cc1-c1cccc(Cl)c1` [Example 391, 2-[(5-{[5-(3-Chlorophenyl)-6-methoxypyridin-3-yl]methyl}pyrimidin-2-yl)amino]ethan-1-ol], the EC50 was less than 100 nM.

On to `COc1ncc(Cc2cnc(CC(N)=O)nc2)cc1-c1ccc(F)cc1` [Example 281, 2-(5-{[5-(4-Fluorophenyl)-6-methoxypyridin-3-yl]methyl}pyrimidin-2-yl)acetamide], for which the EC50 was less than 100 nM.

`OCc1ncn(Cc2cnc(OCC(F)(F)F)c(-c3cccc(Cl)c3)c2)n1` [Example 300, (1-((5-(3-Chlorophenyl)-6-(2,2,2-trifluoroethoxy)pyridin-3-yl)methyl)-1H-1,2,4-triazol-3-yl)methanol]: the EC50 was 100 to 1000 nM.

Take `COc1ncc(Cc2cnc(C(N)=O)nc2)cc1-c1ccc(F)c(F)c1` [Example 373, 5-{[5-(3,4-Difluorophenyl)-6-methoxypyridin-3-yl]methyl}pyrimidine-2-carboxamide]: the EC50 is 100 to 1000 nM.

As to `CCOc1cccc(-c2cc(Cn3nnnc3C)cnc2OCC)c1` [Example 401, 2-Ethoxy-3-(3-ethoxyphenyl)-5-[(5-methyl-1H-1,2,3,4-tetrazol-1-yl)methyl]pyridine], the EC50 is 100 to 1000 nM.

For `CCOc1cc(-c2cc(Cc3cnc(N)nc3)cnc2OC)ccn1` [Example 349, 5-{[5-(2-Ethoxypyridin-4-yl)-6-methoxypyridin-3-yl]methyl}pyrimidin-2-amine], the EC50 is less than 100 nM.

For the molecule `CCOc1ncc(Cc2cnc(N)nc2)cc1-c1ccc(F)c(Cl)c1` [Example 279, 5-((5-(3-Chloro-4-fluorophenyl)-6-ethoxypyridin-3-yl)methyl)pyrimidin-2-amine], the EC50 was less than 100 nM.

Turning to `COc1ncc(Cc2cnc(NCCO)nc2)cc1-c1ccc(F)c(F)c1` [Example 375, 2-[(5-{[5-(3,4-Difluorophenyl)-6-methoxypyridin-3-yl]methyl}pyrimidin-2-yl)amino]ethan-1-ol], the EC50 was less than 100 nM.

Consider `COc1ncc(Cc2cnc(OCCO)nc2)cc1-c1cccc(Cl)c1` [Example 303, 2-((5-((5-(3-Chlorophenyl)-6-methoxypyridin-3-yl)methyl)pyrimidin-2-yl)oxy)ethanol], for which the EC50 is less than 100 nM.

For `COc1cc(-c2cc(Cn3cc(CO)nc3C)cnc2OC)ccc1F` [Example 343, (1-{[5-(4-Fluoro-3-methoxyphenyl)-6-methoxypyridin-3-yl]methyl}-2-methyl-1H-imidazol-4-yl)methanol], the EC50 was 1000 to 10000 nM.

For `CCOc1ncc(Cc2cncc(F)c2)cc1-c1ccnc(OC(F)F)c1` [Example 306, 3-[2-(Difluoromethoxy)pyridin-4-yl]-2-ethoxy-5-[(5-fluoropyridin-3-yl)methyl]pyridine], the EC50 is less than 100 nM.

`NC(=O)Cc1ncc(Cc2cnc(OCC(F)(F)F)c(-c3cccc(Cl)c3)c2)cn1` [Example 370, 2-(5-{[5-(3-Chlorophenyl)-6-(2,2,2-trifluoroethoxy)pyridin-3-yl]methyl}pyrimidin-2-yl)acetamide]: the EC50 is 100 to 1000 nM.

For the molecule `COc1ncc(Cc2cnc(N)nc2)cc1-c1ccc(F)c(Cl)c1` [Example 359, 5-{[5-(3-Chloro-4-fluorophenyl)-6-methoxypyridin-3-yl]methyl}pyrimidin-2-amine], the EC50 was less than 100 nM.

On to `CCOc1cc(-c2cc(Cc3cnc(CO)c(F)c3)cnc2OCC(F)F)ccn1` [Example 404, (5-{[6-(2,2-Difluoroethoxy)-5-(2-ethoxypyridin-4-yl)pyridin-3-yl]methyl}-3-fluoropyridin-2-yl)methanol], for which the EC50 is less than 100 nM.

For `COc1ncc(Cn2cc(CO)nc2C)cc1-c1ccc(F)c(F)c1` [Example 345, (1-{[5-(3,4-Difluorophenyl)-6-methoxypyridin-3-yl]methyl}-2-methyl-1H-imidazol-4-yl)methanol], the EC50 is 100 to 1000 nM.

Regarding `CCOc1ncc(Cn2cnc(CO)n2)cc1-c1ccc(F)c(C)c1` [Example 331, (1-{[6-Ethoxy-5-(4-fluoro-3-methylphenyl)pyridin-3-yl]methyl}-1H-1,2,4-triazol-3-yl)methanol], the EC50 is 100 to 1000 nM.

As for `COc1cc(-c2cc(Cn3cnc(N)n3)cnc2OC)ccc1F` [Example 407, 1-{[5-(4-Fluoro-3-methoxyphenyl)-6-methoxypyridin-3-yl]methyl}-1H-1,2,4-triazol-3-amine], the EC50 is 1000 to 10000 nM.

For `CCOc1ncc(Cn2cnc(C(N)=O)c2)cc1-c1ccnc(OC(F)F)c1` [Example 311, 1-({5-[2-(Difluoromethoxy)pyridin-4-yl]-6-ethoxypyridin-3-yl}methyl)-1H-imidazole-4-carboxamide], the EC50 was 100 to 1000 nM.

In the case of `COc1ncc(Cc2cnc(O)nc2)cc1-c1cccc(Cl)c1` [Example 302, 5-((5-(3-Chlorophenyl)-6-methoxypyridin-3-yl)methyl)pyrimidin-2-ol], the EC50 is 1000 to 10000 nM.

For `COc1ncc(Cc2cnc(N)nc2)cc1-c1ccc(F)c(F)c1` [Example 362, 5-{[5-(3,4-Difluorophenyl)-6-methoxypyridin-3-yl]methyl}pyrimidin-2-amine], the EC50 is less than 100 nM.
